The values that follow are results of earlier work, collected in patent US6428819B1, “Plant extracts for the preparation of pharmaceutical compositions for the treatment of hepatitis” (priority 1996, dated 2002).

This data set deals with hepatitis C. The following applies: literature reports.

Turning to `Nc1nc2c(ncn2COCCO)c(=O)[nH]1` [Acyclovir], the “treatment outcome in chronic hepatitis” value is recorded as “unsatisfactory”.

B1: IFN-gamma: interferon gamma with known antiviral activity (protein, UniProt P01579 24-161, looked up)
Interferon gamma: QDPYVKEAENLKKYFNAGHSDVADNGTLFLGILKNWKEESDRKIMQSQIVSFYFKLFKNFKDDQSIQKSVETIKEDMNVKFFNSNKKKRDDFEKLTNYSVTDLNVQRKAIHELIQVMAELSPAAKTGKRKRSQMLFRG
For B1, the “treatment outcome in chronic hepatitis” value is “ineffective”.
